Laboratory results from patent publication US8648191B2, “Cyclohexyloxy substituted heterocycles, pharmaceutical compositions containing these compounds and processes for preparing them” (Boehringer Ingelheim International GmbH, priority 2008, dated 2014).

Each compound was assayed against T1, human EGF-R (Homo sapiens, UniProt P00533) (assay: Inhibition of the EGFR-dependent proliferation of a murine haematopoietic cell line expressing human EGF-R, stimulated with EGF). Details: 20 ng/ml human EGF, 48 hours at 37° C., Cell Titer 96 AQueous assay.
T1 construct: expressed in transfected cells
Assay type: cell-based
Experimental: A murine haematopoietic cell line is genetically modified so as to express functional human EGF-R. The proliferation of this cell line can therefore be stimulated by EGF.
The test is carried out as follows:
The cells are cultivated in RPMI/1640 medium. The proliferation is stimulated with 20 ng/ml of human EGF (Promega). To investigate the inhibitory activity of the compounds according to the invention these compounds are dissolved in 100% dimethylsulphoxide (DMSO) and added to the cultures in various dilutions, the maximum DMSO concentration being 1%. The cultures are incubated for 48 hours at 37° C.
In order to determine the inhibitory activity of the compounds according to the invention the relative cell number is measured in O.D. Units using the Cell Titer 96™ AQueous Non-Radioactive Cell Proliferation Assay (Promega). The relative cell number is calculated as a percentage of the control and the concentration of active substance which inhibits the proliferation of the cells by 50% (IC50) is derived therefrom.

T1 sequence (P00533 25-1210): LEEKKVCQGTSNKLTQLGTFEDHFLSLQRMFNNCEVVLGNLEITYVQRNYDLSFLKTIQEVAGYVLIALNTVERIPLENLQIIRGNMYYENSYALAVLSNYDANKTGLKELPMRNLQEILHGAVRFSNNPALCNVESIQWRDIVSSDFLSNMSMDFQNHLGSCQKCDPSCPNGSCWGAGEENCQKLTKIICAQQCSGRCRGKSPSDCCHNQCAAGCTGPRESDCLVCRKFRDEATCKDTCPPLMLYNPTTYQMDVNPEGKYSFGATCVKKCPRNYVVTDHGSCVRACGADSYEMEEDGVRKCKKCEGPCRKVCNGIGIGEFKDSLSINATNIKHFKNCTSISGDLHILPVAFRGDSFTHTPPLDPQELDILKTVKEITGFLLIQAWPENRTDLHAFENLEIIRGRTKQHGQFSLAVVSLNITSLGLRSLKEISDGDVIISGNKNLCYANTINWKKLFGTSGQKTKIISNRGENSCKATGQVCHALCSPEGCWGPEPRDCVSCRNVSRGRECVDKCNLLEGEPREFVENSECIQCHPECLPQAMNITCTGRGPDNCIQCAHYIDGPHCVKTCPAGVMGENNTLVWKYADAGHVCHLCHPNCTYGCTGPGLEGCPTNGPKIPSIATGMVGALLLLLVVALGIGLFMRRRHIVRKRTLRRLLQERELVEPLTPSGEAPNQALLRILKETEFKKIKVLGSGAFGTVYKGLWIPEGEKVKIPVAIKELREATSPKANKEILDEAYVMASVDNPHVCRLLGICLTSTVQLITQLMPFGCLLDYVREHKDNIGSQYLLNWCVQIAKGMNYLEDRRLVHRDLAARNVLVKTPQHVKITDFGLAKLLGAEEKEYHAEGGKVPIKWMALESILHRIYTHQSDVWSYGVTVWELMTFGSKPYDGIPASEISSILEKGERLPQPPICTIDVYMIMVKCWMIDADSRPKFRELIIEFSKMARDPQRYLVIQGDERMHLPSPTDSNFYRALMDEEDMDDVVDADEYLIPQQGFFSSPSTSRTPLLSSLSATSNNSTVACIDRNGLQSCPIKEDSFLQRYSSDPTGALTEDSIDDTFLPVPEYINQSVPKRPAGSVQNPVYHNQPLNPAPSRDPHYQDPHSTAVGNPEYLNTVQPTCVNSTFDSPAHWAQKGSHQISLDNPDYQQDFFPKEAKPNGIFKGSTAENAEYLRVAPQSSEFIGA

Row | Compound | IC50 [nM]
1 | COc1cc2ncnc(Nc3cccc(Cl)c3F)c2cc1OC1CCC([C@H]2C(=O)NCCN2C)CC1 (mixture of isomers) [Example 1, cis/trans-(S)-3-{-4-[4-(3-chloro-2-fluoro-phenylamino)-7-methoxy-quinazolin-6-yloxy]-cyclohexyl}-4-methyl-piperazin-2-one] | 1
2 | COc1cc2ncnc(Nc3cccc(Cl)c3F)c2cc1O[C@H]1CC[C@H]([C@@H]2NCCNC2=O)CC1 [1(1b), trans-(S)-3-{4-[4-(3-chloro-2-fluoro-phenylamino)-7-methoxy-quinazolin-6-yloxy]-cyclohexyl}-piperazin-2-one] | 1.4
3 | COc1cc2ncnc(Nc3cccc(Cl)c3F)c2cc1O[C@H]1CC[C@@H]([C@H]2NCCNC2=O)CC1 [1(4), cis-(R)-3-{4-[4-(3-chloro-2-fluoro-phenylamino)-7-methoxy-quinazolin-6-yloxy]-cyclohexyl}-piperazin-2-one] | 12.5
4 | COc1cc2ncnc(Nc3cccc(Cl)c3F)c2cc1O[C@H]1CC[C@H]([C@H]2NCCNC2=O)CC1 [1(5), trans-(R)-3-{4-[4-(3-chloro-2-fluoro-phenylamino)-7-methoxy-quinazolin-6-yloxy]-cyclohexyl}-piperazin-2-one] | 1.6
5 | COc1cc2ncnc(Nc3cccc(Cl)c3F)c2cc1O[C@H]1CC[C@H]([C@@H]2NCCN(C)C2=O)CC1 [1(2), trans-(S)-3-{4-[4-(3-chloro-2-fluoro-phenylamino)-7-methoxy-quinazolin-6-yloxy]-cyclohexyl}-1-methyl-piperazin-2-one] | 1
6 | COc1cc2ncnc(Nc3cccc(Cl)c3F)c2cc1O[C@H]1CC[C@@H]([C@@H]2NCCNC2=O)CC1 [1(1a), cis-(S)-3-{4-[4-(3-chloro-2-fluoro-phenylamino)-7-methoxy-quinazolin-6-yloxy]-cyclohexyl}-piperazin-2-one] | 10
7 | COc1cc2ncnc(Nc3cccc(Cl)c3F)c2cc1OC1CCC([C@H]2C(=O)N(C)CCN2C)CC1 (mixture of isomers) [1(3), cis/trans-(S)-3-{4-[4-(3-chloro-2-fluoro-phenylamino)-7-methoxy-quinazolin-6-yloxy]-cyclohexyl}-1,4-dimethyl-piperazin-2-one] | 1
